{"source": "ChEMBL document CHEMBL4840335", "about": "“Rational Design and Development of Novel CDK9 Inhibitors for the Treatment of Acute Myeloid Leukemia” (J Med Chem, 2021)", "key": {"MV4-11 [1]": {"test_system": "MV4-11", "assay": "Induction of apoptosis in human MV4-11 cells assessed as activation of cleaved PARP at 5 to 50 nM measured after 24 hrs by Western blot analysis", "type": "functional, cell-based", "conditions": "dose 5-50 nM"}, "[2]": {"biological_target": "Vascular endothelial growth factor receptor 1 (Homo sapiens, UniProt P17948)", "assay": "Inhibition of VEGFR1 (unknown origin)"}, "MV4-11 [3]": {"test_system": "MV4-11", "assay": "Induction of apoptosis in human MV4-11 cells assessed as live cells at 10 nM measured after 24 hrs by annexinV-FITC/propidium iodide staining based flow cytometry (reference value: 95.14 %)", "type": "functional"}, "[4]": {"biological_target": "Vascular endothelial growth factor receptor 2 (Homo sapiens, UniProt P35968)", "assay": "Inhibition of KDR (unknown origin)"}, "[5]": {"biological_target": "Receptor tyrosine-protein kinase erbB-4 (Homo sapiens, UniProt Q15303)", "assay": "Inhibition of ErbB4 (unknown origin)"}, "[6]": {"biological_target": "Tyrosine-protein kinase receptor UFO (Homo sapiens, UniProt P30530)", "assay": "Inhibition of AXL (unknown origin)"}, "[7]": {"assay": "Toxicity in Nu/Nu mouse xenografted with human MV4-11 cells assessed as body weight loss at 7.5 mg/kg, po administered for 21 consecutive days relative to control", "type": "organism-based", "conditions": "in vivo, 504 h, time 21 day"}, "[8]": {"biological_target": "Insulin-like growth factor 1 receptor (Homo sapiens, UniProt P08069)", "sequence (P08069 31-736 limits assumed)": "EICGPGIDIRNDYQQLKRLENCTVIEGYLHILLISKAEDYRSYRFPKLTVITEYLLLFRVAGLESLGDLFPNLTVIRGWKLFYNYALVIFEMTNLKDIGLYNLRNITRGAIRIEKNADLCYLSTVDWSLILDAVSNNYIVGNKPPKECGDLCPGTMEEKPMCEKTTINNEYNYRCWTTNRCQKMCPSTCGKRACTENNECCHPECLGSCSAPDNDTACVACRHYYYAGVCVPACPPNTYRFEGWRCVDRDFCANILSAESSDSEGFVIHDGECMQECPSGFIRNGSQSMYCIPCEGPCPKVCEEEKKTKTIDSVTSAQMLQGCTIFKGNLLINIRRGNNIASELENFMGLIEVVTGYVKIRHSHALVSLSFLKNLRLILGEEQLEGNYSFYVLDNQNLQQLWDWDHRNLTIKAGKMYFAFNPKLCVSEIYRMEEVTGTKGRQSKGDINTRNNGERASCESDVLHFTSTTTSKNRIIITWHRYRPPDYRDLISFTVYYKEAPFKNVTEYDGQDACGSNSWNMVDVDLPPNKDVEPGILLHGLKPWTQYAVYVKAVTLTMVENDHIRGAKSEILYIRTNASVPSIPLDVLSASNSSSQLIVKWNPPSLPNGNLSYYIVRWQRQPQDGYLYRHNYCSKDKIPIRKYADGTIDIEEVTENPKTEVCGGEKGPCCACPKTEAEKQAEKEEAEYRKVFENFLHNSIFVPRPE", "sequence (P08069 741-1367 limits assumed)": "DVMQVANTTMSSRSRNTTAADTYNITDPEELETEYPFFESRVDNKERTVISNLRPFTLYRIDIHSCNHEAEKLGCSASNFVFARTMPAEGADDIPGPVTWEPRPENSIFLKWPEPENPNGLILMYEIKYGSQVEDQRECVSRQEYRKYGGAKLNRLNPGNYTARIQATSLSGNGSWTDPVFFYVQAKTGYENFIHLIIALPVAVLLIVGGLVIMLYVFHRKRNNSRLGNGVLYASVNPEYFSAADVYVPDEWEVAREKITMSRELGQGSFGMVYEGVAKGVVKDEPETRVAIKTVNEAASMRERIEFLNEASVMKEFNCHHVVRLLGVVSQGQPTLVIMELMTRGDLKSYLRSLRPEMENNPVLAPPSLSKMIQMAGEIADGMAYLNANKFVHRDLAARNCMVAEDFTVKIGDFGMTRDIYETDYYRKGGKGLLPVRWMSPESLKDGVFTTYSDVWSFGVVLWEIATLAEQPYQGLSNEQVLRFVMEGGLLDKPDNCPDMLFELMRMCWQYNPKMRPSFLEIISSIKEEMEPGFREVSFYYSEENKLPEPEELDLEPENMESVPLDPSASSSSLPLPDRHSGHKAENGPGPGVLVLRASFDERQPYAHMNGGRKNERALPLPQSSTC", "assay": "Inhibition of IGF1R (unknown origin)"}, "MV4-11 [9]": {"test_system": "MV4-11", "assay": "Antitumor activity against human MV4-11 cells xenografted in Nu/Nu mouse assessed as change in tumor volume at 7.5 mg/kg, po administered for 21 consecutive days by digital caliper method and measured on day 22 (reference value: 127 +/- 16 mm3)", "type": "functional", "conditions": "time 22 day"}, "[10]": {"biological_target": "Serine/threonine-protein kinase 17B (Homo sapiens, UniProt O94768)", "sequence (O94768 whole entry)": "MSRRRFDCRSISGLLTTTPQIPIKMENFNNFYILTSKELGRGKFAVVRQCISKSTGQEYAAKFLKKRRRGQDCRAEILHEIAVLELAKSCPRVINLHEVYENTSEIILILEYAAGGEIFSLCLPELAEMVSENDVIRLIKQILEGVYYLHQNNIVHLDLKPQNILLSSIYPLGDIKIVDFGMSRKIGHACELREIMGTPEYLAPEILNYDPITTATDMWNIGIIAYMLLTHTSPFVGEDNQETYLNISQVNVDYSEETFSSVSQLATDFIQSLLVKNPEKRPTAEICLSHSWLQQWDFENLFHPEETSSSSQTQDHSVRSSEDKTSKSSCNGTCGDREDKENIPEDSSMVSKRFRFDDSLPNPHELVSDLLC", "assay": "Inhibition of DRAK2 (unknown origin)"}, "[11]": {"biological_target": "Epidermal growth factor receptor (Homo sapiens, UniProt P00533)", "sequence (P00533 whole entry)": "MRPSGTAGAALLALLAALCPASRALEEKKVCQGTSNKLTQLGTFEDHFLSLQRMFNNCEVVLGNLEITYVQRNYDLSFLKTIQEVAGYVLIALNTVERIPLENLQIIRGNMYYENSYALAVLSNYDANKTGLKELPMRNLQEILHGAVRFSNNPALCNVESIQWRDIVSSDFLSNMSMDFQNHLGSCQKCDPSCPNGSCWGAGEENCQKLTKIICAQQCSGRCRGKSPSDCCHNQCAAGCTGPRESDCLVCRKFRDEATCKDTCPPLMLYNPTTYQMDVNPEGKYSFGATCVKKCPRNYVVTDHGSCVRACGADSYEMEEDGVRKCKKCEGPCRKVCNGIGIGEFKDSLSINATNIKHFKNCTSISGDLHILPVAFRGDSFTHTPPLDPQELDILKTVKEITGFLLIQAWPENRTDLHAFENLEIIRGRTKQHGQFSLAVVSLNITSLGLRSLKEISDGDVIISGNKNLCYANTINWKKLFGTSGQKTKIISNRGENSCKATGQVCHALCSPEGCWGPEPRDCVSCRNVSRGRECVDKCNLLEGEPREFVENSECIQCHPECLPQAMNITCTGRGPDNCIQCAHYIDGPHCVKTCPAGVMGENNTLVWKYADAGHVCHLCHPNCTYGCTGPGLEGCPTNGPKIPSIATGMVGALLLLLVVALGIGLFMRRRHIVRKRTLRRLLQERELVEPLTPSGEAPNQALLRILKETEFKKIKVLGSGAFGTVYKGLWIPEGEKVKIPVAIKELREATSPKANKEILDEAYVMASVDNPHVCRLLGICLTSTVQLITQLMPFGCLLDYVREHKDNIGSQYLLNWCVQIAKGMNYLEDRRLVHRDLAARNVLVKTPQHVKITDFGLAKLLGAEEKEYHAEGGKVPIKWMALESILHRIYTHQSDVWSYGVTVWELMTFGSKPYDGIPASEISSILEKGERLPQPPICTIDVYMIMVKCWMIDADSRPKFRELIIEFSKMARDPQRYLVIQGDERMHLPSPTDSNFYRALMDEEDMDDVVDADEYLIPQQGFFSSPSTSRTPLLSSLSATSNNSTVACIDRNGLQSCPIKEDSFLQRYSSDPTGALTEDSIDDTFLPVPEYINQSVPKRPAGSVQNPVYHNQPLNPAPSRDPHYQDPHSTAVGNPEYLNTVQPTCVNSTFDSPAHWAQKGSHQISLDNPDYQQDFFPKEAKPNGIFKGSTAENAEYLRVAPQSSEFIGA", "assay": "Inhibition of EGFR (unknown origin)"}, "Raji": {"test_system": "Raji", "assay": "Antiproliferative activity against human Raji cells assessed as reduction in cell proliferation measured after 3 to 7 days by MTS assay", "type": "functional, cell-based"}, "MV4-11 [12]": {"test_system": "MV4-11", "assay": "Induction of apoptosis in human MV4-11 cells assessed as late apoptotic cells at 10 nM measured after 24 hrs by annexinV-FITC/propidium iodide staining based flow cytometry (reference value: 3.04 %)", "type": "functional"}, "[13]": {"assay": "MRT in ICR mouse at 2 mg/kg, iv measured up to 24 hrs", "type": "ADME, organism-based", "conditions": "in vivo"}, "[14]": {"biological_target": "Fibroblast growth factor receptor 3 (Homo sapiens, UniProt P22607)", "sequence (P22607 whole entry)": "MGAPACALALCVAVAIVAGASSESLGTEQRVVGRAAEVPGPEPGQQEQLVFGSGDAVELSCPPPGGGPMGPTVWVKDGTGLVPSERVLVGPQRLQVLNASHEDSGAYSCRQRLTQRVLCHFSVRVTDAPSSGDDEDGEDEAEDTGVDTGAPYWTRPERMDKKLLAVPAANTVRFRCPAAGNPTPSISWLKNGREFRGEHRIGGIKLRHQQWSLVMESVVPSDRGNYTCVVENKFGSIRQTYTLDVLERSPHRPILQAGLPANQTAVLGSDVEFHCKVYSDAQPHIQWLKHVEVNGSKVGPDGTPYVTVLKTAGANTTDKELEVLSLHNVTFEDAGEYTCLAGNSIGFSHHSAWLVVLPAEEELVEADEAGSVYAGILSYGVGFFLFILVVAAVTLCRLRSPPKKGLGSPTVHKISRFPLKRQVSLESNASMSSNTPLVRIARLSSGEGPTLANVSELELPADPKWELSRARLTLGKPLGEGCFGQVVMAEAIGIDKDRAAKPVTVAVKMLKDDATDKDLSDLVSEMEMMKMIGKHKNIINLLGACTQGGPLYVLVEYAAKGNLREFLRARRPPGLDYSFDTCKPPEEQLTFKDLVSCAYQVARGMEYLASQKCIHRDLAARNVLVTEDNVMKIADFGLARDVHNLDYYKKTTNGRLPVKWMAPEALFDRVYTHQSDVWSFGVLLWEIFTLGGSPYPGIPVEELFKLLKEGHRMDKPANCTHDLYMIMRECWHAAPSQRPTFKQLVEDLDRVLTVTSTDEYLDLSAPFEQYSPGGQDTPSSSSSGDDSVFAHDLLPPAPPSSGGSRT", "assay": "Inhibition of FGFR3 (unknown origin)"}, "CCRF-CEM": {"test_system": "CCRF-CEM", "assay": "Antiproliferative activity against human CCRF-CEM cells assessed as reduction in cell proliferation measured after 3 to 7 days by MTS assay", "type": "functional, cell-based"}, "MV4-11 [15]": {"test_system": "MV4-11", "assay": "Induction of apoptosis in human MV4-11 cells assessed as downregulation of BCL2 at 1 to 10 uM measured after 12 hrs by Western blot analysis", "type": "functional, cell-based", "conditions": "dose 1-10 µM"}, "MV4-11 [16]": {"test_system": "MV4-11", "assay": "Antitumor activity against human MV4-11 cells xenografted in Nu/Nu mouse assessed as relative tumor volume at 7.5 mg/kg, po administered for 21 consecutive days by digital caliper method", "type": "functional", "conditions": "time 22 day"}, "[17]": {"assay": "Half life in ICR mouse at 20 mg/kg, po measured up to 24 hrs", "type": "ADME, organism-based", "conditions": "in vivo"}, "[18]": {"biological_target": "Receptor tyrosine-protein kinase erbB-2 (Homo sapiens, UniProt P04626)", "assay": "Inhibition of ErbB2 (unknown origin)"}, "[19]": {"assay": "AUClast in ICR mouse at 2 mg/kg, iv measured up to 24 hrs", "type": "ADME, organism-based", "parameters": "route intravenous, dose 2 mg/kg, time <=24", "conditions": "in vivo"}, "[20]": {"biological_target": "Discoidin domain-containing receptor 2 (Homo sapiens, UniProt Q16832)", "assay": "Inhibition of DDR2 (unknown origin)"}, "Insulin receptor": {"biological_target": "Insulin receptor (Homo sapiens, UniProt P06213)", "assay": "Inhibition of IR (unknown origin)"}, "MV4-11 [21]": {"test_system": "MV4-11", "assay": "Induction of apoptosis in human MV4-11 cells assessed as early apoptotic cells at 10 nM measured after 24 hrs by annexinV-FITC/propidium iodide staining based flow cytometry (reference value: 0.79 %)", "type": "functional"}, "MV4-11 [22]": {"test_system": "MV4-11", "assay": "Induction of apoptosis in human MV4-11 cells assessed as early apoptotic cells at 50 nM measured after 24 hrs by annexinV-FITC/propidium iodide staining based flow cytometry (reference value: 0.79 %)", "type": "functional"}, "HL-60": {"test_system": "HL-60", "assay": "Antiproliferative activity against human HL-60 cells assessed as reduction in cell proliferation measured after 3 to 7 days by MTS assay", "type": "functional, cell-based"}, "MM1.S": {"test_system": "MM1.S", "assay": "Antiproliferative activity against human MM1.S cells assessed as reduction in cell proliferation measured after 3 to 7 days by MTS assay", "type": "functional, cell-based"}, "RPMI-8226": {"test_system": "RPMI-8226", "assay": "Antiproliferative activity against human RPMI-8226 cells assessed as reduction in cell proliferation measured after 3 to 7 days by MTS assay", "type": "functional, cell-based"}, "TMD8": {"test_system": "TMD8", "assay": "Antiproliferative activity against human TMD8 cells assessed as reduction in cell proliferation measured after 3 to 7 days by MTS assay", "type": "functional, cell-based"}, "MV4-11 [23]": {"test_system": "MV4-11", "assay": "Antitumor activity against human MV4-11 cells xenografted in Nu/Nu mouse assessed as tumor growth suppression by measuring T/C ratio at 7.5 mg/kg, po administered for 21 consecutive days by digital caliper method relative to control", "type": "functional", "conditions": "time 21 day"}, "[24]": {"assay": "Oral bioavailability in ICR mouse at 20 mg/kg measured up to 24 hrs", "type": "ADME, organism-based", "conditions": "in vivo"}, "Z-138": {"test_system": "Z-138", "assay": "Antiproliferative activity against human Z138 cells assessed as reduction in cell proliferation measured after 3 to 7 days by MTS assay", "type": "functional, cell-based"}, "[25]": {"assay": "Observed AUC infinity in ICR mouse at 20 mg/kg, po measured up to 24 hrs", "type": "ADME, organism-based", "parameters": "route oral, dose 20 mg/kg, time <=24", "conditions": "in vivo"}, "[26]": {"biological_target": "Cyclin-dependent kinase 4 (Homo sapiens, UniProt P11802)", "sequence (P11802 whole entry)": "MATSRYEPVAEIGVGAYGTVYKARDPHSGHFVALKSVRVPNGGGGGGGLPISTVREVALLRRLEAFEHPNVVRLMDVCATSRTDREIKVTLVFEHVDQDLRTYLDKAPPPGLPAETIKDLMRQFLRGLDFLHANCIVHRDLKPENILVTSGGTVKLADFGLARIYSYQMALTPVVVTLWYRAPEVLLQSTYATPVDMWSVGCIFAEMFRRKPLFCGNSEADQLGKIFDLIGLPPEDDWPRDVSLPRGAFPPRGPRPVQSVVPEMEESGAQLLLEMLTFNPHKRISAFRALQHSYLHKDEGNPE", "assay": "Inhibition of CDK4 (unknown origin)"}, "[27]": {"biological_target": "Serine/threonine-protein kinase Chk1 (Homo sapiens, UniProt O14757)", "sequence (O14757 whole entry)": "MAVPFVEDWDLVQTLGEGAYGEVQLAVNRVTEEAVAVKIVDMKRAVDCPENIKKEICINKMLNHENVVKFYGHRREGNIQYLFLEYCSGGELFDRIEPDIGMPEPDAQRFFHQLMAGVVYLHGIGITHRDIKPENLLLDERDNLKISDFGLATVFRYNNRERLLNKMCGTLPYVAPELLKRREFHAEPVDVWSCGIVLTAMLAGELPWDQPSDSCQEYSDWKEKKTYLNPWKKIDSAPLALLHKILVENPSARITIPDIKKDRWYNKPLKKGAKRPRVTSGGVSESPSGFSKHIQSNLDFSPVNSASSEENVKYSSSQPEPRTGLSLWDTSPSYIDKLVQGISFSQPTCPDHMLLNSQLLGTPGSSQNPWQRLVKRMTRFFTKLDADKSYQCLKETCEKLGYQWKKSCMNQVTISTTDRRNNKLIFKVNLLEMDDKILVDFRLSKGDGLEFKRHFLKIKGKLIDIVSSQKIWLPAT", "assay": "Inhibition of CHK1 (unknown origin)"}, "[28]": {"assay": "Toxicity in Nu/Nu mouse xenografted with human MV4-11 cells assessed as change in body weight at 7.5 mg/kg, po administered for 21 consecutive days and measured on day 22 (reference value: 23.9 +/- 0.7 g)", "type": "organism-based", "conditions": "in vivo, 528 h, time 22 day"}, "[29]": {"biological_target": "Serine/threonine-protein kinase Chk2 (Homo sapiens, UniProt O96017)", "assay": "Inhibition of CHK2 (unknown origin)"}, "[30]": {"biological_target": "Serine/threonine-protein kinase PAK 1 (Homo sapiens, UniProt Q13153)", "sequence (Q13153 whole entry)": "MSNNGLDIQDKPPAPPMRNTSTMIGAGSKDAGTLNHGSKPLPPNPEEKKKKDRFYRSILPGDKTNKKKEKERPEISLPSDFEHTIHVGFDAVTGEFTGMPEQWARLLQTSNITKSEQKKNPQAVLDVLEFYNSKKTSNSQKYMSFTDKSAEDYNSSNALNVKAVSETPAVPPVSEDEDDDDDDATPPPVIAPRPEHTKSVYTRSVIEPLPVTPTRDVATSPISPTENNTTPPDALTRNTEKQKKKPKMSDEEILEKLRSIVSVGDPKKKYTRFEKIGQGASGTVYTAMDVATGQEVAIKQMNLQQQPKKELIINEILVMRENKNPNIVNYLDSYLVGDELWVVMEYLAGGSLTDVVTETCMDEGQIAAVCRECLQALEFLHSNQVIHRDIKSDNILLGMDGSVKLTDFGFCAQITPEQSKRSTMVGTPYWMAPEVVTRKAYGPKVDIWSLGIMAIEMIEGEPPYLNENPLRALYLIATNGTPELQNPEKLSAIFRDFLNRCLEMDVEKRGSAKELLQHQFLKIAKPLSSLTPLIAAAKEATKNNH", "assay": "Inhibition of PAK1 (unknown origin)"}, "CDK9/cyclin T1": {"biological_target": "CDK9/cyclin T1 (Homo sapiens, UniProt P50750)", "assay": "Inhibition of CDK9/cyclin T1 (unknown origin) incubated for 2 hrs in presence of ATP by FRET based LANCE assay", "type": "protein-complex assay"}, "MV4-11 [31]": {"test_system": "MV4-11", "assay": "Induction of apoptosis in human MV4-11 cells assessed as live cells at 50 nM measured after 24 hrs by annexinV-FITC/propidium iodide staining based flow cytometry (reference value: 95.14 %)", "type": "functional"}, "[32]": {"biological_target": "Fibroblast growth factor receptor 2 (Homo sapiens, UniProt P21802)", "assay": "Inhibition of FGFR2 (unknown origin)"}}, "note": "Active and inactive are the calls of the source. The rule behind the calls is not given here.", "data": [{"smiles": "Cc1n[nH]c2ccc(-c3cc(N[C@@H](CO)c4ccccc4)cnc3Cl)cc12", "values": [{"measurement": "Activity", "setting": "MV4-11 [1]", "value": "Active"}, {"measurement": "IC50", "setting": "[2]", "value": "> 1000", "unit": "nM"}, {"measurement": "Activity", "setting": "MV4-11 [3]", "value": 94.45, "unit": "%"}, {"measurement": "IC50", "setting": "[4]", "value": "> 1000", "unit": "nM"}, {"measurement": "IC50", "setting": "[5]", "value": "> 1000", "unit": "nM"}, {"measurement": "IC50", "setting": "[6]", "value": "> 1000", "unit": "nM"}, {"measurement": "Activity", "setting": "[7]", "value": "< 10", "unit": "%"}, {"measurement": "IC50", "setting": "[8]", "value": "> 1000", "unit": "nM"}, {"measurement": "Activity", "setting": "MV4-11 [9]", "value": 371, "unit": "mm3"}, {"measurement": "IC50", "setting": "[10]", "value": "> 1000", "unit": "nM"}, {"measurement": "IC50", "setting": "[11]", "value": "> 1000", "unit": "nM"}, {"measurement": "IC50", "setting": "Raji", "value": 37, "unit": "nM"}, {"measurement": "Activity", "setting": "MV4-11 [12]", "value": 2.95, "unit": "%"}, {"measurement": "MRT", "setting": "[13]", "value": 0.73, "unit": "h"}, {"measurement": "IC50", "setting": "[14]", "value": "> 1000", "unit": "nM"}, {"measurement": "IC50", "setting": "CCRF-CEM", "value": 2.1, "unit": "nM"}, {"measurement": "Activity", "setting": "MV4-11 [15]", "value": "inactive"}, {"measurement": "Activity", "setting": "MV4-11 [16]", "value": 2.86}, {"measurement": "half-life", "setting": "[17]", "value": 8.02, "unit": "h"}, {"measurement": "IC50", "setting": "[18]", "value": "> 1000", "unit": "nM"}, {"measurement": "AUC(0-t) at 24 h", "setting": "[19]", "value": 553, "unit": "ng·h/mL"}, {"measurement": "IC50", "setting": "[20]", "value": "> 1000", "unit": "nM"}, {"measurement": "IC50", "setting": "Insulin receptor", "value": "> 1000", "unit": "nM"}, {"measurement": "Activity", "setting": "MV4-11 [21]", "value": 1.76, "unit": "%"}, {"measurement": "Activity", "setting": "MV4-11 [22]", "value": 3.23, "unit": "%"}, {"measurement": "IC50", "setting": "HL-60", "value": 44, "unit": "nM"}, {"measurement": "IC50", "setting": "MM1.S", "value": 13, "unit": "nM"}, {"measurement": "IC50", "setting": "RPMI-8226", "value": 5.4, "unit": "nM"}, {"measurement": "IC50", "setting": "TMD8", "value": 46, "unit": "nM"}, {"measurement": "T/C", "setting": "MV4-11 [23]", "value": 27.8, "unit": "%"}, {"measurement": "bioavailability", "setting": "[24]", "value": 33.7, "unit": "%"}, {"measurement": "IC50", "setting": "Z-138", "value": 46, "unit": "nM"}, {"measurement": "AUC(0-inf)", "setting": "[25]", "value": 1880, "unit": "ng·h/mL"}, {"measurement": "IC50", "setting": "[26]", "value": "> 1000", "unit": "nM"}, {"measurement": "IC50", "setting": "[27]", "value": "> 1000", "unit": "nM"}, {"measurement": "Activity", "setting": "[28]", "value": 22.1, "unit": "g"}, {"measurement": "IC50", "setting": "[29]", "value": "> 1000", "unit": "nM"}, {"measurement": "IC50", "setting": "[30]", "value": "> 1000", "unit": "nM"}, {"measurement": "IC50", "setting": "CDK9/cyclin T1", "value": 5.41, "unit": "nM"}, {"measurement": "Activity", "setting": "MV4-11 [31]", "value": 76.29, "unit": "%"}, {"measurement": "IC50", "setting": "[32]", "value": "> 1000", "unit": "nM"}]}]}
